Laboratory results from US5021450A (priority 1989, dated 1991).
Entries after “also recorded” stand apart in the source; their conditions may differ. Like-named read-outs stand apart in the source and are kept apart here.

Columns and labels:
polymodal nociceptors [1] = test system: polymodal nociceptors; design: species or system Sprague-Dawley rats; conditions: rat, in vivo
polymodal nociceptors [2] = type: in vivo, Sprague-Dawley rats; conditions: for Neurogenic inflammation, Evan's blue: 30 min; for Evan's blue extravasation / less potent than RTX for induction of Evan's blue extravasation: rat, in vivo
polymodal nociceptors [3] = experiment: animal or person; type: in vivo, Sprague-Dawley rats
[4] = test system: polymodal nociceptor neurons; conditions: for RTX-like effects: in vivo
protein kinase C [5] = conditions: read-out: KI, binding affinity to protein kinase C; cited from earlier work
polymodal nociceptors [6] = experiment: animal or person; type: in vivo, Sprague-Dawley rats; remark: listed apart in the source
protein kinase C [7] = type: binding; conditions: for Ki: read-out: KI, binding affinity to protein kinase C
mouse ear = conditions: in vivo; cited from earlier work
polymodal nociceptors [8] = test system: polymodal nociceptors; design: species or system Sprague-Dawley rats; conditions: rat, in vivo; remark: listed apart in the source
polymodal nociceptors [9] = conditions: rat, in vivo; cited from earlier work
[10] = rat, in vivo; cited from earlier work
[11] = test system: polymodal nociceptor neurons; conditions: in vivo; cited from earlier work
[12] = mouse, in vivo; cited from earlier work
[13] = design: species or system rats; conditions: rat, in vivo
[14] = Rattus norvegicus, sc, 6 hr, read-out: Systemic desensitization against neurogenic inflammation, inhibition
[15] = Rattus norvegicus, sc, 6 h, read-out: Systemic desensitization against neurogenic pain, inhibition

Structure (SMILES) | RPP (Relative Pain-Producing Potency) (polymodal nociceptors [1]) | Neurogenic inflammation, Evan's blue (polymodal nociceptors [2]) | Evan's blue extravasation (polymodal nociceptors [2]) | inhibition at 0.3 mg/kg (polymodal nociceptors [3]; [14]) | RTX-like effects [4] | activity in eye-wiping assay / pain induction (polymodal nociceptors [1]) | inhibition at 0.3 mg/kg (polymodal nociceptors [6]; [15]) | Relative Affinity (protein kinase C [7]) | reduction of protein kinase C binding affinity by the 20-homovanillate ester (protein kinase C [7]) | Ki (protein kinase C [7]) | further results
C=C(C)[C@@]12O[C@@]3(c4ccccc4)O[C@@H]1[C@@H]1[C@@H]4O[C@]4(CO)[C@@H](O)[C@]4(O)C(=O)C(C)=C[C@H]4[C@@]1(O3)[C@H](C)[C@H]2OC(=O)/C=C/C=C/c1ccccc1 [Mez, Mezerein] | 0.1 | 0 | slight extravasation | 0% | inactive |  |  |  |  |  | Ki (protein kinase C [5]): 0.00058 ± 6e-05 µM
C=C(C)[C@@]12O[C@@]3(c4ccccc4)O[C@@H]1[C@@H]1[C@@H]4O[C@]4(COC(=O)Cc4ccc(O)c(OC)c4)[C@@H](O)[C@]4(O)C(=O)C(C)=C[C@H]4[C@@]1(O3)[C@H](C)[C@H]2OC(=O)/C=C/C=C/c1ccccc1 [Mez-HV, Mezerein 20-homovanillate] | 0.1 | 0 | No extravasation | 0% | inactive | very weak pungency; also recorded: very weak activity | 0% | 690 | 690 fold | 0.4 ± 0.11 µM | potency in eye-wiping assay, less potent than RTX and dPP-HV (polymodal nociceptors [1]): approximately 4 orders of magnitude; less potent than RTX for induction of Evan's blue extravasation (polymodal nociceptors [2]): at least 30 fold; desensitization to chemically-induced pain and to neurogenic inflammation (polymodal nociceptors [6]; rat, in vivo): No activity; also recorded: inactive
C=C(C)[C@]12C[C@@H](C)[C@@]34O[C@](Cc5ccccc5)(O[C@@H]1[C@@H]3C=C(CO)C[C@]1(O)C(=O)C(C)=C[C@@H]41)O2 [ROA, Resiniferonol 9,13,14Orthophenylacetate] | 1 | 0 |  | 0% | totally inactive |  | 0% |  |  | 0.036 ± 0.009 µM | less potent than RTX for RTX-characteristic biological responses (polymodal nociceptors [1]): at least 1000 fold; less active than dPP or mezerein in competing for phorbol ester binding sites on protein kinase C (protein kinase C [7]): 100 fold; potency in ear reddening assay, less than dPP (mouse ear): 25 fold; potency in ear reddening assay, less than mezerein (mouse ear): 33 fold
C=C(C)[C@]12C[C@@H](C)[C@@]34O[C@](Cc5ccccc5)(O[C@@H]1[C@@H]3C=C(COC(=O)Cc1ccc(O)c(OC)c1)C[C@]1(O)C(=O)C(C)=C[C@@H]41)O2 [RTX, Resiniferatoxin] | 1000 | 91.6 ± 3.6 |  | 100% |  | comparable activity |  | 11 | 11 fold | 0.404 ± 0.063 µM | delay of eye-wiping movements after instillation (polymodal nociceptors [1]): 5 to 10 s; Local desensitization against neurogenic pain, inhibition (polymodal nociceptors [8]): 43%; inhibition at 0.01 mg/kg (polymodal nociceptors [6]; [15]): 100%; dose giving a detectable Evan's blue extravasation response (polymodal nociceptors [9]): 3×10^-6 g/paw; dose producing a substantial drop in body temperature [10]: 10^-7 g/kg; more potent than phorbol 12-myristate 13-acetate in mouse ear erythema assay (mouse ear): 1000 fold; more potent compared to capsaicin [11]: 3-4 orders of magnitude; body temperature in mice [12]: dramatic fall in body temperature
COc1cc(CNC(=O)CCCC/C=C/C(C)C)ccc1O [capsaicin] |  |  |  |  |  |  |  |  |  |  | body temperature in mice [12]: dramatic fall in body temperature
CC1=C[C@H]2[C@@]3(O)[C@H](C)C[C@]4(OC(=O)Cc5ccccc5)[C@H]([C@@H]3C=C(CO)C[C@]2(O)C1=O)C4(C)C [dPP, 12-deoxyphorbol 13-phenylacetate] | 1 | 0 | slight extravasation | 0% | inactive |  |  |  |  | 0.00064 ± 1e-05 µM | 
COc1cc(CC(=O)OCC2=C[C@H]3[C@@H]4C(C)(C)[C@]4(OC(=O)Cc4ccccc4)C[C@@H](C)[C@]3(O)[C@@H]3C=C(C)C(=O)[C@@]3(O)C2)ccc1O [dPP-HV, 20-Homovanillic-12-deoxyphorbol 13-phenylacetate] | 1000 | 0 | No extravasation | 26% | more active than capsaicin and less active than RTX | comparable to RTX; also recorded: comparable activity | 19% | 130 | 130 fold | 0.082 ± 0.013 µM | delay of eye-wiping movements after instillation (polymodal nociceptors [1]): 20 to 30 s; Local desensitization against neurogenic pain, inhibition (polymodal nociceptors [8]): 78%; potency relative to RTX for desensitization of pain upon local administration (polymodal nociceptors [8]): ≤ 10 fold; less potent than RTX for induction of Evan's blue extravasation (polymodal nociceptors [2]): at least 30 fold; desensitization to chemically-induced pain and to neurogenic inflammation (polymodal nociceptors [6]; rat, in vivo): able to desensitize; relative potency for systemic desensitization to chemically induced pain, less than RTX (polymodal nociceptors [6]; rat, in vivo): approximately 3000 fold; inhibition at 1 mg/kg (polymodal nociceptors [3]; [14]): 62%; relative potency for inhibiting xylene-induced Evan's blue extravasation, less than RTX (polymodal nociceptors [3]; rat, in vivo): 300 fold; induction of hypothermia [13]: totally inactive; less potent than RTX for induction of hypothermia [13]: at least 4 orders of magnitude; less potent than RTX in the other RTX responses / in vivo assays [4]: 2-4 orders of magnitude
